The text below walks through data of US11034839B2, “Compounds, linked with haptens, for the detection of senescent cells” (THE UNIVERSITY OF MANCHESTER, priority 2016, dated 2021).

For data set [1], the system named is lipofuscin rich senescent cells, induced Saos2-p21WAF1/Cip1 Tet-ON cells. Kind of data set: Immunohistochemistry staining in induced Saos2-p21WAF1/Cip1 Tet-ON cellular system. It counts as cell-based, human. The following applies: FIG. 13. The method, then: • 1. Compound (LG13) • 2. 100% ethanol (100% EtOH) • 3. Parafilm • 4. Fritted glass filter of medium porosity • 5. Airtight Dye Container 2.2.2 General Procedure: • 1. Dissolve 40 mg of the compound (LG13) in 7.4 ml 100% EtOH in a glass beaker and cover it with parafilm. • 2. Incubate at 56° C. in a waterbath for 120 min until the compound is completely dissolved. 2.3. General Method for Compound (LG13) Staining 2.3.1 Materials: • 1. Xylene • 2. […] Syringe • 4. 13 mm filter, membrane 0.22 μm • 5. Soft paper (dry or dipped in ethanol) • 6. Anti-biotin antibody ([Hyb-8] ab201341, Abcam) • 7. Ultravision Quanto Detection System HRP DAB kit (Cat no: TL-125-QHD) • 8. Glycerol (Sigma-Aldrich) • 9. Tris Buffered Saline (TBS; 10×): 1.5 M NaCl, 0.1 M Tris-HCl, pH 7.4. Store at 4° C. • 10. 0.5% Triton X/TBS: 0.5 ml Triton X diluted in 99.5 ml TBS • 11. Mounting media Glycergel (DakoCytomation). • 12. Light Microscope • 13. Anti-p21^WAF1/Cip1 mouse primary antibody [(F-5)(sc-6246) Santa-Cruz] • 14. Anti-p16^INK4A mouse primary antibody [(sc-74401) Santa-Cruz] • 15. Anti-Ki67 rabbit polyclonal antibody [ab16667, Abcam] • 16. Secondary goat anti-mouse antibody Alexa Fluor 568 conjugated [Thermo Fisher Scientific (Cat no: A-11004)] • 17. DAPI (4′,6-Diamidino-2-Phenylindole, Dihydrochloride) [Thermo Fisher Scientific (Cat no: D1306)] • 18. Fluorescence microscope 2.3.2 General Procedures: 2.3.2.1 General Staining Protocol for Cells Mounted on Coverslips • 1. Wash ×1 in TBS for 5 min at RT. • 2. Block the endogenous hydrogen peroxidase, using the UltraVision Hydrogen Peroxide Block included in the Ultravision Quanto Detection System HRP DAB kit (Cat no: TL-125-QHD) for 10 min at RT and in dark conditions. • 3. Wash ×2 in TBS for 30 sec and ×1 for 5 min at RT. • 4. Wash ×1 in EtOH 50% for 5 min at RT. • 5. Wash ×1 EtOH 70% for 5 min at RT. • 6. […] The staining reaction is monitored under the light microscope until detection of the signal (average time 5-8 min). • 8. […] The staining reaction is monitored under the light microscope until detection of the dark brown signal (average time 30 sec-1 min) at RT 1. • 20. […]

The test system of the next data set is lipofuscin. The note with it: Georgakopoulou et al., 2013; cited from earlier work.
The nature of the next data set: Ethanol solubility. It counts as physicochemical.
Data set [2] concerns senescent cells in irradiated human laryngeal tumors and mouse lung adenomas. The experiment in a line: Histochemical staining of paraffin embedded, formalin fixed tissue sections (same method as for SBB). The note with it: FFPE sections of irradiated human laryngeal tumors and mouse lung adenomas; dye in 70% ethanol, 10 min. The source says: In the following comparative example 1 the histochemical dye SBB was used to detect senescent cells in tissue sections by the histochemical method previously described [Georgakopoulou et al, Aging (Albany N.Y.) 2013].
Tissue sections were obtained from paraffin embedded, formalin fixed: (a) irradiated human laryngeal tumors and (b) mouse lung adenomas, with established presence of senescent cells. Subsequently, they were immobilized on glass microscopy slides by standard procedures and processed as follows: • a. Deparaffinization for 5 min at room temperature in xylene. • b. Gradual rehydration in solutions of descending concentration of ethanol (100%, 80%, 70%, 50% v/v) and finally in TBS (Tris-buffered saline) or PBS (Phosphate-buffered saline) solution. • c. The SBB dye was diluted in 70% ethanol (v/v), filtered and then applied on tissue sections for 10 min. • d. Quick wash in 50% (v/v) ethanol. • e. Transfer and wash in TBS or PBS solution. • f. Counterstain with Hematoxylin or Nuclear Fast Red, followed by mounting with glycerol and sealed with a cover slip. • g. Microscopy observation. […]

For data set [3], the system named is senescent cells (lipofuscin). The following applies: Georgakopoulou et al, 2013; cited from earlier work.
Data set [4] concerns senescent cells in biological systems with established senescence. Kind of data set: Quantitative analysis and concordance of SA-b-gal, SBB and GL13 staining. The following applies: FIG. 15.
The subject of data set [5] is HeLa cancer cells and near normal Li-Fraumeni fibroblasts. Kind of data set: False-positive studies (cell confluency, serum starvation). It counts as cell-based, human. The following applies: compared with SA-b-gal, FIGS. 17 and 18. The text has this:
The in vitro models comprised seven cellular systems. […] The same cellular system was used at early passages that underwent SIPS upon y-irradiation and was compared in relation to non-irradiated counterparts. Another set of models comprised two inducible Saos2 Tet-ON osteosarcoma cell lines carrying p53 and p21^WAF1/Cip1, respectively, two well established effectors of senescence (Georgakopoulou et al., 2013; Galanos et al., 2016). Finally, the U2OS-E2F1 ER, U205-Cdt1 Tet-ON and HBECs-Cdc6 Tet-ON inducible systems that undergo SIPS due to oncogenic stress signals were also utilized (Petrakis et al., 2016; Liontos et al., 2007; Liontos et al., 2009). Parental cell lines were obtained either directly from ATCC or from collaborating laboratories that generated them. In addition, the human cancer cell line HeLa and near normal Li-Fraumeni fibroblasts (Galanos et al., 2016) were also employed as control cell lines for the specificity of staining of the SBB compounds.

Regarding `CC1(CCCOC(=O)CCCC[C@H]2SC[C@H]3NC(=O)N[C@H]32)Nc2cccc3c(/N=N/c4ccc(/N=N/c5ccccc5)c5ccccc45)ccc(c23)N1` (stereo partly drawn) [LG56, 3-(2-Methyl-6-((E)-(4-((E)-phenyldiazenyl)naphthalen-1-yl)diazenyl)-2,3-dihydro-1H-perimidin-2-yl)propyl 5-((3aR,4R,6aS)-2-oxohexahydro-1H-thieno[3,4-d]imidazol-4-yl)pentanoate], in data set [1], the “detection of lipofuscin rich senescent cells by immunohistochemistry staining” value (from here on “detection”) is recorded as “detect robustly lipofuscin rich senescent cells”.

On to `CC1(CCOC(=O)CCCC[C@H]2SC[C@H]3NC(=O)N[C@H]32)Nc2cccc3c(/N=N/c4ccc(/N=N/c5ccccc5)c5ccccc45)ccc(c23)N1` (stereo partly drawn) [LG39, 2-(2-Methyl-6-((E)-(4-((E)-phenyldiazenyl)naphthalen-1-yl)diazenyl)-2,3-dihydro-1H-perimidin-2-yl)ethyl 5-((3aR,4R,6aS)-2-oxohexahydro-1H-thieno[3,4-d]imidazol-4-yl)pentanoate], for which the “detection” value in data set [1] is reported as “detect robustly lipofuscin rich senescent cells”.

For `CC1(C)Nc2cccc3c(/N=N/c4ccc(/N=N/c5ccccc5)c5ccccc45)ccc(c23)N1` [SBB, Sudan Black B], in the data set on lipofuscin, the “effect of staining on lipofuscin autofluorescence” value is reported as “quenched”. For the same compound, the ethanol solubility result in the data set “Ethanol solubility” was “ethanol solubility problems”. The “histochemical staining of senescent cells” value in data set [2] is given as “senescent cells are clearly stained”. In data set [3], the “selectivity of lipofuscin stain for senescent cells” value is on record as “highly selective for the detection of senescent cells”. In addition, the “specificity compared among SA-b-gal, SBB and GL13 staining” value in data set [4] is reported as “concordance of specificity”. The “false-positive staining due to serum starvation and cell confluency” value in data set [5] is on record as “deprived of the false-positive staining disadvantages”.

As for `CC1(C)Nc2cccc3c(/N=N/c4ccc(/N=N/c5ccc(CCOC(=O)CCCC[C@H]6SC[C@H]7NC(=O)N[C@H]76)cc5)c5ccccc45)ccc(c23)N1` [LG52, 4-((E)-(4-((E)-(2,2-Dimethyl-2,3-dihydro-1H-perimidin-6-yl)diazenyl)naphthalen-1-yl)diazenyl)phenethyl 5-((3aR,4R,6aS)-2-oxohexahydro-1H-thieno[3,4-d]imidazol-4-yl)pentanoate], the “detection” value in data set [1] is reported as “detect robustly lipofuscin rich senescent cells”.
